Tests used:
MC38_sgStk11 tumor = assay: Anti-tumor efficacy in murine subcutaneous MC38_sgStk11 tumor model; type: in vivo, Mus musculus; settings: for T/C / TGI %: day 11
Protocol: Summary: An in vivo anti-tumor efficacy of double combination treatment of Anti-PD1 and HDAC1,2-selective inhibitor in a murine subcutaneous MC38_sgStk11 tumor model in […] mice was performed.
96 mice plus 39 spare mice of the species: Mus musculus: strain: C57BL/6; age 8-10 weeks; sex: female; and body weight: 16.9-20.0 g
The MC38_sgStk11 tumor cells were maintained in vitro as a monolayer culture in DMEM+2 mM glutamine supplemented with about 10% heat inactivated fetal bovine serum, about 100 U/ml penicillin and 100 μg/ml streptomycin at about 37° C. in an atmosphere of about 5% CO2 in air. The tumor cells were routinely sub-cultured twice weekly by trypsin-EDTA treatment. The cells growing in an exponential growth phase were harvested and counted for tumor inoculation.
Each mouse was inoculated subcutaneously at the right upper flank with MC38_sgStk11 tumor cells (0.5×106) in 0.1 ml of PBS for tumor development. Treatments were started on day 4 after tumor inoculation when the average tumor size reached 52 mm^3. The animals were assigned into groups according to a sorting standard operating procedures based upon their tumor volumes. Each group consisted of 8 tumor bearing mice. The testing article was administrated to the mice according to the predetermined regimen as shown in the experimental design table (Table 1-1).
All the procedures related to animal handling, care and the treatment in the study were performed according to the guidelines approved by the Institutional Animal Care and Use Committee (IACUC) of vendor following the guidance of the Association for Assessment and Accreditation of Laboratory Animal Care (AAALAC). At the time of routine monitoring, the animals were daily checked for any effects of tumor growth and treatments on normal behavior such as mobility, food and water consumption, body weight gain/loss (body weights were measured three times per week), eye/hair matting and any other abnormal effect as stated in the protocol. Death and observed clinical signs were recorded on the basis of the numbers of animals within each subset.
A primary endpoint was to see if the tumor growth could be delayed or mice could be cured. Tumor size was measured three times per week in two dimensions using a caliper, and the volume was expressed in mm3 using the formula: V=0.5 a×b2 where a and b are the long and short diameters of the tumor, respectively. The T/C value (in percent) is an indication of antitumor effectiveness; T and C are the mean volume of the treated and control groups, respectively, on a given day. TGI is calculated for each group using the formula: TGI (%)=[1−(Ti−T0)/(Vi−V0)]×100; Ti is the average tumor volume of a treatment group on a given day, T0 is the average tumor volume of the treatment group on the day of treatment start, Vi is the average tumor volume of the vehicle control group on the same day with Ti, and V0 is the average tumor volume of the vehicle group on the day of treatment start.
Statistical analysis of difference in the tumor volume among the groups were conducted on the data obtained at the best therapeutic time point at the day 11 after the start of treatment. A one-way ANOVA was performed for comparisons between groups. The survival analysis between groups was carried out with Kaplan-Meier test. p<0.05 was considered to be statistically significant.

logD7.4 = type: physicochemical; settings: pH 7.4
[1] = Gr 5: Compound I 75 mg/kg PO QD + Anti-IgG2a 10 mg/kg IP BIW
[2] = Gr 6: Compound I 150 mg/kg D0-D4, 100 mg/kg D5-D48 PO QD + Anti-IgG2a 10 mg/kg IP BIW

C[S@@](=N)(=O)c1ccc(C(=O)Nc2cc(-c3ccc(F)cc3)ccc2N)cc1 [Compound I, (R)—N-(4-amino-4′-fluoro-[1,1′-biphenyl]-3-yl)-4-(S-methylsulfonimidoyl)benzamide]
PR (partial regression) (MC38_sgStk11 tumor; [1]): 0.0% | Tumor Volume (MC38_sgStk11 tumor; Gr 5: Compound I 75 mg/kg PO QD + Anti-IgG2a 10 mg/kg IP BIW, day 0 of treatment): 52 ± 2 mm^3 | Tumor Volume (MC38_sgStk11 tumor; Gr 5: Compound I 75 mg/kg PO QD + Anti-IgG2a 10 mg/kg IP BIW, day 2 of treatment): 218 ± 12 mm^3 | Tumor Volume (MC38_sgStk11 tumor; Gr 5: Compound I 75 mg/kg PO QD + Anti-IgG2a 10 mg/kg IP BIW, day 4 of treatment): 485 ± 37 mm^3 | Tumor Volume (MC38_sgStk11 tumor; Gr 5: Compound I 75 mg/kg PO QD + Anti-IgG2a 10 mg/kg IP BIW, day 7 of treatment): 576 ± 45 mm^3 | Tumor Volume (MC38_sgStk11 tumor; Gr 5: Compound I 75 mg/kg PO QD + Anti-IgG2a 10 mg/kg IP BIW, day 9 of treatment): 622 ± 44 mm^3 | T/C (MC38_sgStk11 tumor; [1]): 29.7% | TGI % (MC38_sgStk11 tumor; [1]): 72.1% | Tumor Volume (MC38_sgStk11 tumor; Gr 5: Compound I 75 mg/kg PO QD + Anti-IgG2a 10 mg/kg IP BIW, day 11 of treatment): 632 ± 55 mm^3 | Tumor Volume (MC38_sgStk11 tumor; Gr 5: Compound I 75 mg/kg PO QD + Anti-IgG2a 10 mg/kg IP BIW, day 14 of treatment): 580 ± 85 mm^3 | Tumor Volume (MC38_sgStk11 tumor; Gr 5: Compound I 75 mg/kg PO QD + Anti-IgG2a 10 mg/kg IP BIW, day 16 of treatment): 557 ± 101 mm^3 | Tumor Volume (MC38_sgStk11 tumor; Gr 5: Compound I 75 mg/kg PO QD + Anti-IgG2a 10 mg/kg IP BIW, day 18 of treatment): 536 ± 109 mm^3 | Tumor Volume (MC38_sgStk11 tumor; Gr 5: Compound I 75 mg/kg PO QD + Anti-IgG2a 10 mg/kg IP BIW, day 21 of treatment): 514 ± 117 mm^3 | Tumor Volume (MC38_sgStk11 tumor; Gr 5: Compound I 75 mg/kg PO QD + Anti-IgG2a 10 mg/kg IP BIW, day 23 of treatment): 502 ± 138 mm^3 | Tumor Volume (MC38_sgStk11 tumor; Gr 5: Compound I 75 mg/kg PO QD + Anti-IgG2a 10 mg/kg IP BIW, day 25 of treatment): 477 ± 151 mm^3 | Tumor Volume (MC38_sgStk11 tumor; Gr 5: Compound I 75 mg/kg PO QD + Anti-IgG2a 10 mg/kg IP BIW, day 28 of treatment): 551 ± 171 mm^3 | Tumor Volume (MC38_sgStk11 tumor; Gr 5: Compound I 75 mg/kg PO QD + Anti-IgG2a 10 mg/kg IP BIW, day 30 of treatment): 815 ± 291 mm^3 | Tumor Volume (MC38_sgStk11 tumor; Gr 5: Compound I 75 mg/kg PO QD + Anti-IgG2a 10 mg/kg IP BIW, day 32 of treatment): 1001 ± 375 mm^3 | Tumor Volume (MC38_sgStk11 tumor; Gr 5: Compound I 75 mg/kg PO QD + Anti-IgG2a 10 mg/kg IP BIW, day 34 of treatment): 827 ± 268 mm^3 | Tumor Volume (MC38_sgStk11 tumor; Gr 5: Compound I 75 mg/kg PO QD + Anti-IgG2a 10 mg/kg IP BIW, day 38 of treatment): 14 mm^3 | Tumor Volume (MC38_sgStk11 tumor; Gr 5: Compound I 75 mg/kg PO QD + Anti-IgG2a 10 mg/kg IP BIW, day 42 of treatment): 13 mm^3 | Tumor Volume (MC38_sgStk11 tumor; Gr 5: Compound I 75 mg/kg PO QD + Anti-IgG2a 10 mg/kg IP BIW, day 45 of treatment): 6 mm^3 | Tumor Volume (MC38_sgStk11 tumor; Gr 5: Compound I 75 mg/kg PO QD + Anti-IgG2a 10 mg/kg IP BIW, day 49 after start of treatment): 0 mm^3 | Tumor Volume (MC38_sgStk11 tumor; Gr 5: Compound I 75 mg/kg PO QD + Anti-IgG2a 10 mg/kg IP BIW, day 52 after start of treatment): 0 mm^3 | Tumor Volume (MC38_sgStk11 tumor; Gr 5: Compound I 75 mg/kg PO QD + Anti-IgG2a 10 mg/kg IP BIW, day 56 after start of treatment): 0 mm^3 | Tumor Volume (MC38_sgStk11 tumor; Gr 5: Compound I 75 mg/kg PO QD + Anti-IgG2a 10 mg/kg IP BIW, day 59 after start of treatment): 0 mm^3 | Tumor Volume (MC38_sgStk11 tumor; Gr 5: Compound I 75 mg/kg PO QD + Anti-IgG2a 10 mg/kg IP BIW, day 63 after start of treatment): 0 mm^3 | Tumor Volume (MC38_sgStk11 tumor; Gr 5: Compound I 75 mg/kg PO QD + Anti-IgG2a 10 mg/kg IP BIW, day 66 after start of treatment): 0 mm^3 | CR (complete regression) (MC38_sgStk11 tumor; [2]): 0.0% | ORR (CR + PR) (MC38_sgStk11 tumor; [2]): 0.0% | PR (partial regression) (MC38_sgStk11 tumor; [2]): 0.0% | Tumor Volume (MC38_sgStk11 tumor; Gr 6: Compound I 150 mg/kg D0-D4, 100 mg/kg D5-D48 PO QD + Anti-IgG2a 10 mg/kg IP BIW, day 0 of treatment): 52 ± 2 mm^3 | Tumor Volume (MC38_sgStk11 tumor; Gr 6: Compound I 150 mg/kg D0-D4, 100 mg/kg D5-D48 PO QD + Anti-IgG2a 10 mg/kg IP BIW, day 2 of treatment): 205 ± 14 mm^3 | Tumor Volume (MC38_sgStk11 tumor; Gr 6: Compound I 150 mg/kg D0-D4, 100 mg/kg D5-D48 PO QD + Anti-IgG2a 10 mg/kg IP BIW, day 4 of treatment): 450 ± 40 mm^3 | Tumor Volume (MC38_sgStk11 tumor; Gr 6: Compound I 150 mg/kg D0-D4, 100 mg/kg D5-D48 PO QD + Anti-IgG2a 10 mg/kg IP BIW, day 7 of treatment): 508 ± 40 mm^3 | Tumor Volume (MC38_sgStk11 tumor; Gr 6: Compound I 150 mg/kg D0-D4, 100 mg/kg D5-D48 PO QD + Anti-IgG2a 10 mg/kg IP BIW, day 9 of treatment): 636 ± 19 mm^3 | T/C (MC38_sgStk11 tumor; [2]): 41.2% | TGI % (MC38_sgStk11 tumor; [2]): 60.2% | Tumor Volume (MC38_sgStk11 tumor; Gr 6: Compound I 150 mg/kg D0-D4, 100 mg/kg D5-D48 PO QD + Anti-IgG2a 10 mg/kg IP BIW, day 11 of treatment): 878 ± 66 mm^3 | Tumor Volume (MC38_sgStk11 tumor; Gr 6: Compound I 150 mg/kg D0-D4, 100 mg/kg D5-D48 PO QD + Anti-IgG2a 10 mg/kg IP BIW, day 14 of treatment): 1090 ± 167 mm^3 | Tumor Volume (MC38_sgStk11 tumor; Gr 6: Compound I 150 mg/kg D0-D4, 100 mg/kg D5-D48 PO QD + Anti-IgG2a 10 mg/kg IP BIW, day 16 of treatment): 1236 ± 211 mm^3 | Tumor Volume (MC38_sgStk11 tumor; Gr 6: Compound I 150 mg/kg D0-D4, 100 mg/kg D5-D48 PO QD + Anti-IgG2a 10 mg/kg IP BIW, day 18 of treatment): 1414 ± 243 mm^3 | Tumor Volume (MC38_sgStk11 tumor; Gr 6: Compound I 150 mg/kg D0-D4, 100 mg/kg D5-D48 PO QD + Anti-IgG2a 10 mg/kg IP BIW, day 21 of treatment): 1728 ± 366 mm^3 | Tumor Volume (MC38_sgStk11 tumor; Gr 6: Compound I 150 mg/kg D0-D4, 100 mg/kg D5-D48 PO QD + Anti-IgG2a 10 mg/kg IP BIW, day 23 of treatment): 2198 ± 472 mm^3 | Tumor Volume (MC38_sgStk11 tumor; Gr 6: Compound I 150 mg/kg D0-D4, 100 mg/kg D5-D48 PO QD + Anti-IgG2a 10 mg/kg IP BIW, day 25 of treatment): 2054 ± 638 mm^3 | Tumor Volume (MC38_sgStk11 tumor; Gr 6: Compound I 150 mg/kg D0-D4, 100 mg/kg D5-D48 PO QD + Anti-IgG2a 10 mg/kg IP BIW, day 28 of treatment): 1705 ± 330 mm^3 | Tumor Volume (MC38_sgStk11 tumor; Gr 6: Compound I 150 mg/kg D0-D4, 100 mg/kg D5-D48 PO QD + Anti-IgG2a 10 mg/kg IP BIW, day 30 of treatment): 1840 ± 326 mm^3 | Tumor Volume (MC38_sgStk11 tumor; Gr 6: Compound I 150 mg/kg D0-D4, 100 mg/kg D5-D48 PO QD + Anti-IgG2a 10 mg/kg IP BIW, day 32 of treatment): 1949 ± 395 mm^3 | Tumor Volume (MC38_sgStk11 tumor; Gr 6: Compound I 150 mg/kg D0-D4, 100 mg/kg D5-D48 PO QD + Anti-IgG2a 10 mg/kg IP BIW, day 34 of treatment): 2089 ± 389 mm^3 | logD7.4 (logD7.4): 1.9

From patent publication US20260041653A1, “AN HDAC INHIBITOR FOR TREATING CANCER WITH A MODIFIED STK11 ACTIVITY OR EXPRESSION” (Tango Therapeutics, Inc., priority 2022, published 2026)
